We go through three compounds from patent US10472330B2, “Substituted triazenes protected from degradation by carboxylation of N1” (ARIZONA BOARD OF REGENTS ON BEHALF OF THE UNIVERSITY OF …, priority 2015, dated 2019).

The conditions of series [1]: not pH dependent in the physiological range; cited from earlier work.
The target in series [2] is Bovine serum albumin (BSA) (Bos taurus, UniProt P02769). Kind of series: BSA labeling (gel fluorescence) after acidification. Conditions: 10 μM BSA, 10 μM compound after acidification at pH 2 for 0-60 min, then pH 8.8, 0° C., 1 hour. The class given is biochemical. As to the method:
To 10 μM solution of BSA in 100 mM Tris-Cl pH 8.8 was added 10 μM of Compound 53 after acidification (100 mM Tris-Cl pH 2) for 0, 1, 10, 30, or 60 minutes. […] The reaction was then allowed to proceed at 0° C. for 1 hour prior to loading onto a gel.
Bovine serum albumin (BSA) was used as a model protein to help assess the ability of Compound 53 to label proteins. BSA is known to bind to small molecules. Compound 53 was subjected to acid for varying times and then added to a solution of BSA at a pH sufficient to minimize background release of the diazonium ion (FIG. 11C). […] It is possible that this indicates a cleavage of the azobenzene linkage; however, the fluorescence could be quenched by reduction at several locations. To assess whether the standard azobenzene reduction is operative with these compounds, the resulting amino phenol may be oxidized and the ortho-iminoquinone may be trapped via established Diels-Alder chemistry. In some embodiments, molecules of the present invention can help distinguish between tyrosine and histidine modifications.

Series [3] can be described thus: Photo-induced degradation of triazabutadienes under hand-held UV lamp, followed by NMR. The class given is physicochemical. The procedure: (i) The reaction was monitored by comparing starting materials (A, C, D, and E) with product (B); (ii) Peak absorption and extinction coefficients for all of the compounds were excitable by the UV source used; (iii) Time-dependent conversion of compounds was measured by NMR integration.
Referring to FIG. 5A, in some embodiments, triazabutadiene molecules of the present invention may readily photoisomerize to a more reactive Z-form. As an example, an aqueous solution of Compound A was irradiated with a simple hand-held UV lamp (“365 nm,” measured at 350 nm). Consumption of Compound A was observed after only a few hours. […] Without wishing to limit the present invention to any theory or mechanism, it was hypothesized that if a two-electron process were happening, then Compound A-Z would be more basic than Compound A-E. A 1.0 N NaOH solution of Compound A was treated with light. […] Benzene diazonium ions also absorb UV light to expel nitrogen and generate a benzene radical. In order to resolve if the initial cleavage undergoes a radical homolytic mechanism versus a two-electron heterolytic mechanism, a trapping experiment using resorcinol was conducted. (Resorcinol was chosen because it can serve a dual role as a radical scavenger and a trap benzene diazonium species that could be formed.) An excess of resorcinol was added to a pH 9 borate-buffered solution of Compound A and the mixture was irradiated with light. The known azobenzene, Sudan Orange G, was formed in a 65% yield (versus 4% for the non-irradiated reaction). Derivatives of Compound A were made to examine the effects of electronic perturbations on the light-induced degradation. […] A buffered borate solution was chosen due to its alkaline nature and lack of complicating signals in the NMR experiment. Compounds C-E all have absorption spectra that are well within the range of the UV lamp (see FIG. 5A(ii)).

A short description of series [4]: Stability of non-irradiated (dark) aqueous solutions. The class given is physicochemical. The text has this: (§1) Referring to FIG. 5A, in some embodiments, triazabutadiene molecules of the present invention may readily photoisomerize to a more reactive Z-form. As an example, an aqueous solution of Compound A was irradiated with a simple hand-held UV lamp (“365 nm,” measured at 350 nm). Consumption of Compound A was observed after only a few hours. […] Without wishing to limit the present invention to any theory or mechanism, it was hypothesized that if a two-electron process were happening, then Compound A-Z would be more basic than Compound A-E. A 1.0 N NaOH solution of Compound A was treated with light. […] Benzene diazonium ions also absorb UV light to expel nitrogen and generate a benzene radical. In order to resolve if the initial cleavage undergoes a radical homolytic mechanism versus a two-electron heterolytic mechanism, a trapping experiment using resorcinol was conducted. (Resorcinol was chosen because it can serve a dual role as a radical scavenger and a trap benzene diazonium species that could be formed.) An excess of resorcinol was added to a pH 9 borate-buffered solution of Compound A and the mixture was irradiated with light. The known azobenzene, Sudan Orange G, was formed in a 65% yield (versus 4% for the non-irradiated reaction). Derivatives of Compound A were made to examine the effects of electronic perturbations on the light-induced degradation. […]

Series [5] can be described thus: Resorcinol trapping of diazonium species (Sudan Orange G formation). The class given is physicochemical. The following applies: excess resorcinol, pH 9 borate buffer.
Source text: as §1

Series [6] in a line: In situ real-time pH measurement upon UV irradiation. The class given is physicochemical. Conditions: water, pH adjusted to 9 before irradiation, over several minutes. As to the method:
In an effort to examine the rate order for the pH-increasing reaction more carefully, in situ, real-time pH measurements were acquired. Compound A was dissolved in water and the pH of the solution was adjusted to 9 such that it would not form Compound B in the absence of light. […] This spike was not at all consistent with the model of the pH increase being solely linked to the concentration of Compound B being generated.
A sample was irradiated and then the light was turned off once the pH of the solution started to increase noticeably. […] The experiment was repeated with increasing times of irradiation, and a saw-tooth pattern was obtained. The process was not completely reversible due to some degradation to Compound B. Indeed, triazabutadiene Compound A can serve a dual role of being a photo-masked base (see FIG. 4B(i)), and a base whose intrinsic functional group properties are altered photochemically (FIG. 4B(iii)).
Referring to FIG. 5A(iii), Compound C and Compound D were examined in an effort to find a base that was reversibly basic but also more resistant to degradation.

Series [7] can be described thus: Stability in DMSO with excess acetic acid, with or without light. The class given is physicochemical. As to the method: (§2) It is possible that Compound A may be useful as a photo-catalytic base in the context of organic reactions. […] As noted previously, Compound A is quite stable to an excess of acetic acid in DMSO, showing only 12% degradation over 14 hours at room temperature. […] To confirm that this was due to the acid, a solution of Compound A (in pure DMSO) was irradiated. After four hours of constant irradiation in acid-free DMSO, an E:Z ratio of nearly 50:50 was observed.

The nature of series [8]: E/Z photoisomerization and thermal Z to E reversion. The class given is physicochemical. The following applies: MeOD.
A further series can be described thus: Solubility observations. The class given is physicochemical. Conditions: organic solvents. The procedure:
as §2
As another non-limiting example, an azide (e.g., NHS-azide) to N-heterocyclic carbene (NHC) route may be used to synthesize triazabutadiene molecules (e.g., see FIG. 6C). For example, as shown in Compound 4 of FIG. 6D, a triazabutadiene molecule was synthesized from dimethyl imidazole derived NHC and phenyl azide. […] This change was confirmed to coincide with diazonium formation by trapping the reactive species with resorcinol to provide known diazo dye Sudan Orange G. When the triazabutadiene molecule (Compound 4) was treated with the much less acidic acetic acid, the same product was obtained.
To render the triazabutadiene water-soluble, methyl imidazole was alkylated with propane sultone to provide the Zwitterionic NHC precursor Compound 5a (see FIG. 6E). […] Compound 6a was highly colored, so its pH dependence was studied using UV/vis. The reactions were not only pH-, but also scan-frequency dependent. Upon finding this, the stability of Compound 6a was studied in D2O in the dark using NMR. Even in the dark it was unstable, but not in the diazonium-forming way. Both Compound 6b and a more hindered mesityl (Mes) substituted Compound 6c (see FIG. 6E) were synthesized to stabilize what was initially considered to be a rearrangement pathway that could be blocked by steric repulsion. […] Dissolution in 0.1 N NaOH rendered all compounds stable (e.g., no detectable degradation after 24 hours in the dark).
To further examine the reactivity of this class of compounds, variants Compound 6d and Compound 6e were synthesized (see FIG. 6G). It was hypothesized that the p-methoxy and p-nitro analogs (Compound 6d and Compound 6e, respectively) would display different reactivity profiles. […] After collecting the precipitate and dissolving it in deuterated methanol, no change was observed from a sample of Compound 6e that had never been exposed to a buffered solution. […] It is possible that: 1) that the sodium salt of Compound 6e is much less soluble than the potassium salt; or 2) with different solvating ions present the sulfonate interacts with the electron-poor N2 nitrogen atom of the triazabutadiene to break conjugation and form an insoluble complex (this is backed by a reversible color change of the starting rust-red solid, to the light yellow precipitate). […]

Chain of Bovine serum albumin (BSA) (P02769 25-607): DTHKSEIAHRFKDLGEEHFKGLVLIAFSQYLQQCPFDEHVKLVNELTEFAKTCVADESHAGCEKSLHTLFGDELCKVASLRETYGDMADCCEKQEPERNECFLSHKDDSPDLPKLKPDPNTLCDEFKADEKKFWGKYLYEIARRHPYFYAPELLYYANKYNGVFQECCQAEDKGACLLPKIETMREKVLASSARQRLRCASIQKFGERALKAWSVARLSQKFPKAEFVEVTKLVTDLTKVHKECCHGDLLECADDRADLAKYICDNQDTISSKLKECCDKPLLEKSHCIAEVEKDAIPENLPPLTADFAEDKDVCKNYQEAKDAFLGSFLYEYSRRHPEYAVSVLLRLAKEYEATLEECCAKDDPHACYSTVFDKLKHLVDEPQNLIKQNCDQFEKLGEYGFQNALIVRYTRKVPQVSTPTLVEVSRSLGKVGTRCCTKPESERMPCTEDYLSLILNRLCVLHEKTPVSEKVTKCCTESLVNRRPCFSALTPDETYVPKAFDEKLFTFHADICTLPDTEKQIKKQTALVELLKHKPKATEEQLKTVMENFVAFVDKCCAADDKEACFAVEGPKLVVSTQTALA

`N#[N+]c1ccccc1` [benzenediazonium]: the “Half-life of first-order degradation to phenol” value in series [1] was around 4 h.
With `Cc1cc(C)c(-n2ccn(CCCS(=O)(=O)O)c2=NN=Nc2ccc3c(C(F)(F)F)cc(=O)oc3c2)c(C)c1` [Compound 53], the “Labeling of BSA” value in series [2] is listed as “labeled in a pH dependent manner”.
Turning to `Cc1cc(C)c(-n2ccn(CCCS(=O)(=O)[O-])c2=NN=Nc2ccccc2)c(C)c1.[K+]` [Compound A], the “Consumption of starting material under constant irradiation at pH 14” value in series [3] (1.0 N NaOH, pH 14, 20 hours constant irradiation) was “near complete consumption”. Besides, the “Consumption on UV irradiation (time)” value in series [3] (aqueous solution, hand-held UV lamp (365 nm, measured at 350 nm)) is reported as “a few hours”. Besides, the “Stability at pH 14 in the dark” value in series [4] (1.0 N NaOH solution, pH 14, dark) is “stable for weeks”. Also, the “Stability of non-irradiated reaction” value in series [4] (aqueous solution, similar conditions, no irradiation) is given as “stable for days”. Further, the “Sudan Orange G yield, irradiated” value in series [5] (irradiated with light) is reported as 65%. Further, in series [5] (non-irradiated reaction), the “Sudan Orange G yield, non-irradiated” value came out at 4%. Also, the “pH of solution upon exposure to 350 nm light” value in series [6] was around 10. The “Degradation with excess acetic acid in DMSO” value in [7] (14 hours, room temperature, no light) worked out at 12%. Besides, the “Degradation with acetic acid in DMSO upon irradiation” value in series [7] (irradiation with light, same time frame (14 hours)) is reported as “completely fell apart”. For the same compound, in series [8], the “Rate of first-order thermal isomerization” value turned out to be 3e-05 s⁻¹. In “Solubility observations”, the “Solubility in organic solvents” value is listed as “limited solubility in all but DMSO”.
